Results taken from US20260028354A1, “TETRAHYDRONAPHTHALENE DERIVATIVES AS ESTROGEN RECEPTOR DEGRADERS” (REGENT OF THE UNIVERSITY OF MICHIGAN, priority 2022, published 2026).

Assay: Western blot analysis for "B" compounds
Type: cell-based
Conditions: read-out: Traditional Western Degradation Potency (DC50)
Summary of the method: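 Compound-treated cells lysed in RIPA buffer with protease inhibitors; equal protein (BCA) run on 10% SDS-PAGE, transferred to PVDF and probed with target antibodies. Band intensities quantified by densitometry and normalized to GAPDH.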

Compound | DC50
O=C1CCC(N2C(=O)c3cc4c(cc3C2=O)CN(C2CC(C(=O)N3CCCC(Oc5ccc([C@@H]6c7ccc(O)cc7CC[C@@H]6c6ccccc6)cc5)C3)C2)C4)C(=O)N1 (mixture of isomers) [Compound B14, 2-(2,6-dioxopiperidin-3-yl)-6-(3-(3-(4-((1R,2S)-6-hydroxy-2-phenyl-1,2,3,4-tetrahydronaphthalen-1-yl)phenoxy)piperidine-1-carbonyl)cyclobutyl)-6,7-dihydropyrrolo[3,4-f]isoindole-1,3(2H,5H)-dione] | > 100 nM
O=C1CCC(N2Cc3cc4c(cc3C2=O)C(=O)N(CC2CN(CC3CCN(c5ccc([C@@H]6c7ccc(O)cc7CC[C@@H]6c6ccccc6)cc5)CC3)C2)C4)C(=O)N1 (stereo partly drawn) [Compound B305, 2-(2,6-dioxopiperidin-3-yl)-6-((1-((1-(4-((1R,2S)-6-hydroxy-2-phenyl-1,2,3,4-tetrahydronaphthalen-1-yl)phenyl)piperidin-4-yl)mcthyl)azctidin-3-yl)methyl)-2,3,5,6-tctrahydropyrrolo[3,4-f]isoindole-1,7-dione] | > 100 nM
O=C1CCC(N2C(=O)c3cc4c(cc3C2=O)CN(C2CCN(C(=O)C3CCN(c5ccc([C@@H]6c7ccc(O)cc7CC[C@@H]6c6ccccc6)cc5)CC3)CC2)C4)C(=O)N1 (stereo partly drawn) [Compound B7, 2-(2,6-dioxopiperidin-3-yl)-6-(1-(1-(4-((1R,2S)-6-hydroxy-2-phenyl-1,2,3,4-tetrahydronaphthalen-1-yl)phenyl)piperidine-4-carbonyl)piperidin-4-yl)-6,7-dihydropyrrolo[3,4-f]isoindole-1,3(2H,5H)-dione] | < 10 nM
O=C1CCC(N2C(=O)c3cc4c(cc3C2=O)CN(c2ncc(CN3CC(Oc5ccc([C@@H]6c7ccc(O)cc7CC[C@@H]6c6ccccc6)cc5)C3)cn2)C4)C(=O)N1 (stereo partly drawn) [Compound B89, 2-(2,6-dioxopiperidin-3-yl)-6-(5-((3-(4-((1R,2S)-6-hydroxy-2-phenyl-1,2,3,4-tetrahydronaphthalen-1-yl)phenoxy)azetidin-1-yl)methyl)pyrimidin-2-yl)-6,7-dihydropyrrolo[3,4-f]isoindole-1,3(2H,5H)-dione] | > 100 nM
O=C1CCC(N2C(=O)c3cc4c(cc3C2=O)CN(C2CCC(C(=O)N3CCN(c5ccc([C@@H]6c7ccc(O)cc7CC[C@@H]6c6ccccc6)cc5)CC3)CC2)C4)C(=O)N1 (stereo partly drawn) [Compound B77, 2-(2,6-dioxopiperidin-3-yl)-6-(4-(4-(4-((1R,2S)-6-hydroxy-2-phenyl-1,2,3,4-tetrahydronaphthalen-1-yl)phenyl)piperazine-1-carbonyl)cyclohexyl)-6,7-dihydropyrrolo[3,4-f]isoindole-1,3(2H,5H)-dione] | > 100 nM
O=C1CCC(N2C(=O)c3cc4c(cc3C2=O)CN(C2CCC(CNC3CN(c5ccc([C@@H]6c7ccc(O)cc7CC[C@@H]6c6ccccc6)cc5)C3)CC2)C4)C(=O)N1 (stereo partly drawn) [Compound B100, 2-(2,6-dioxopiperidin-3-yl)-6-(4-(((1-(4-((1R,2S)-6-hydroxy-2-phenyl-1,2,3,4-tetrahydronaphthalen-1-yl)phenyl)azetidin-3-yl)amino)methyl)cyclohexyl)-6,7-dihydropyrrolo[3,4-f]isoindole-1,3(2H,5H)-dione] | > 100 nM
2-(2,6-dioxopiperidin-3-yl)-6-(1-((1-(4-((1R,2S)-6-hydroxy-2- phenyl-1,2,3,4-tctrahydronaphthalcn-1-yl)phenyl)pipcridin-4- yl)methyl)piperidin-4-yl)-2,3,5,6-tetrahydropyrrolo[3,4- f]isoindole-1,7-dione [Compound B304] | > 100 nM
O=C1CCC(N2C(=O)c3cc4c(cc3C2=O)CN(CC2CCN(C(=O)C3CCN(c5ccc([C@@H]6c7ccc(O)cc7CC[C@@H]6c6ccccc6)cc5)CC3)CC2)C4)C(=O)N1 (mixture of isomers) [Compound B8, 2-(2,6-dioxopiperidin-3-yl)-6-((1-(1-(4-((1R,2S)-6-hydroxy-2-phenyl-1,2,3,4-tetrahydronaphthalen-1-yl)phenyl)piperidine-4-carbonyl)piperidin-4-yl)methyl)-6,7-dihydropyrrolo[3,4-f]isoindole-1,3(2H,5H)-dione] | 10 to 100 nM
O=C1CCC(N2C(=O)c3cc4c(cc3C2=O)CN(C(=O)c2ccc(CC(=O)N3CCCC(Oc5ccc([C@@H]6c7ccc(O)cc7CC[C@@H]6c6ccccc6)cc5)C3)cc2)C4)C(=O)N1 (stereo partly drawn) [Compound B16, 2-(2,6-dioxopiperidin-3-yl)-6-(4-(2-(3-(4-((1R,2S)-6-hydroxy-2-phenyl-1,2,3,4-tetrahydronaphthalen-1-yl)phenoxy)piperidin-1-yl)-2-oxoethyl)benzoyl)-6,7-dihydropyrrolo[3,4-f]isoindole-1,3(2H,5H)-dione] | 10 to 100 nM
O=C1CCC(N2C(=O)c3cc4c(cc3C2=O)CN(C2CCN(CC3CN(c5ccc([C@@H]6c7ccc(O)cc7CC[C@@H]6c6ccc(F)cc6)cc5)C3)CC2)C4)C(=O)N1 (stereo partly drawn) [Compound B69, 2-(2,6-dioxopiperidin-3-yl)-6-(1-((1-(4-((1R,2S)-2-(4-fluorophenyl)-6-hydroxy-1,2,3,4-tetrahydronaphthalen-1-yl)phenyl)azetidin-3-yl)methyl)piperidin-4-yl)-6,7-dihydropyrrolo[3,4-f]isoindole-1,3(2H,5H)-dione] | > 100 nM
O=C1CCC(N2Cc3cc4c(cc3C2=O)CN(C(=O)C2CCN(CC3CN(c5ccc([C@@H]6c7ccc(O)cc7CC[C@@H]6c6ccccc6)cc5)C3)CC2)C4)C(=O)N1 (stereo partly drawn) [Compound B80, 3-(6-(1-((1-(4-((1R,2S)-6-hydroxy-2-phenyl-1,2,3,4-tetrahydronaphthalen-1-yl)phenyl)azetidin-3-yl)methyl)piperidine-4-carbonyl)-1-oxo-3,5,6,7-tetrahydropyrrolo[3,4-f]isoindol-2(1H)-yl)piperidine-2,6-dione] | > 100 nM
O=C1CCC(N2C(=O)c3cc4c(cc3C2=O)CN(C2CCC(CN3CCN(c5ccc([C@@H]6c7ccc(O)cc7CC[C@@H]6c6ccccc6)cc5)CC3)CC2)C4)C(=O)N1 (stereo partly drawn) [Compound B76, 2-(2,6-dioxopiperidin-3-yl)-6-(4-((4-(4-((1R,2S)-6-hydroxy-2-phenyl-1,2,3,4-tetrahydronaphthalen-1-yl)phenyl)piperazin-1-yl)methyl)cyclohexyl)-6,7-dihydropyrrolo[3,4-f]isoindole-1,3(2H,5H)-dione] | 10 to 100 nM

Results, then the compound that gave them:

DC50 | Compound
> 100 nM | O=C1CCC(N2C(=O)c3cc4c(cc3C2=O)CN(CC2CC3(CCN(C(=O)c5ccc([C@@H]6c7ccc(O)cc7CC[C@@H]6c6ccccc6)cc5)CC3)C2)C4)C(=O)N1 (stereo partly drawn) [Compound B289, 2-(2,6-dioxopiperidin-3-yl)-6-((7-(4-((1R,2S)-6-hydroxy-2-phenyl-1,2,3,4-tetrahydronaphthalen-1-yl)benzoyl)-7-azaspiro[3.5]nonan-2-yl)methyl)-6,7-dihydropyrrolo[3,4-f]isoindole-1,3(2H,5H)-dione]
> 100 nM | O=C1CCC(N2C(=O)c3cc4c(cc3C2=O)CN(C(=O)[C@H]2CC[C@H](N3CC(Oc5ccc([C@@H]6c7ccc(O)cc7CC[C@@H]6c6ccccc6)cc5)C3)CC2)C4)C(=O)N1 (stereo partly drawn) [Compound B127, 2-(2,6-dioxopiperidin-3-yl)-6-((1S,4r)-4-(3-(4-((1R,2S)-6-hydroxy-2-phenyl-1,2,3,4-tetrahydronaphthalen-1-yl)phenoxy)azetidin-1-yl)cyclohexane-1-carbonyl)-6,7-dihydropyrrolo[3,4-f]isoindole-1,3(2H,5H)-dione]
10 to 100 nM | O=C1CCC(N2Cc3cc4c(cc3C2=O)CN(CC(=O)N2CCC3(CCN(c5ccc([C@@H]6c7ccc(O)cc7CC[C@@H]6c6ccccc6)cc5)CC3)C2)C4)C(=O)N1 (mixture of isomers) [Compound B182, 3-(6-(2-(8-(4-((1R,2S)-6-hydroxy-2-phenyl-1,2,3,4-tetrahydronaphthalen-1-yl)phenyl)-2,8-diazaspiro[4.5]decan-2-yl)-2-oxoethyl)-1-oxo-3,5,6,7-tetrahydropyrrolo[3,4-f]isoindol-2(1H)-yl)piperidine-2,6-dione]
> 100 nM | O=C1CCC(N2C(=O)c3cc4c(cc3C2=O)CN(CC2CCN(C(=O)C3(F)CN(c5ccc([C@@H]6c7ccc(O)cc7CC[C@@H]6c6ccccc6)cc5)C3)CC2)C4)C(=O)N1 (stereo partly drawn) [Compound B266, 2-(2,6-dioxopiperidin-3-yl)-6-((1-(3-fluoro-1-(4-((1R,2S)-6-hydroxy-2-phenyl-1,2,3,4-tetrahydronaphthalen-1-yl)phenyl)azetidine-3-carbonyl)piperidin-4-yl)methyl)-6,7-dihydropyrrolo[3,4-f]isoindolc-1,3(2H,5H)-dionc]
> 100 nM | O=C1CCC(N2Cc3cc4c(cc3C2=O)CN(C2CN(CC3CCN(c5ccc([C@@H]6c7ccc(O)cc7CC[C@@H]6c6ccccc6)cc5)CC3)C2)C4=O)C(=O)N1 (stereo partly drawn) [Compound B302, 2-(2,6-dioxopiperidin-3-yl)-6-(1-((1-(4-((1R,2S)-6-hydroxy-2-phenyl-1,2,3,4-tetrahydronaphthalen-1-yl)phenyl)piperidin-4-yl)methyl)azetidin-3-yl)-2,3,6,7-tetrahydropyrrolo[3,4-f]isoindole-1,5-dione]
> 100 nM | O=C1CCC(N2C(=O)c3cc4c(cc3C2=O)CN(C(=O)CN2CC3(CCN(c5ccc([C@@H]6c7ccc(O)cc7CC[C@@H]6c6ccccc6)cc5)CC3)C2)CCC4)C(=O)N1 (mixture of isomers) [Compound B260, 2-(2,6-dioxopiperidin-3-yl)-6-(2-(7-(4-((1R,2S)-6-hydroxy-2-phenyl-1,2,3,4-tetrahydronaphthalen-1-yl)phenyl)-2,7-diazaspiro[3.5]nonan-2-yl)acetyl)-6,7,8,9-tetrahydroazepino[3,4-f]isoindole-1,3(2H,5H)-dione]
> 100 nM | O=C1CCC(N2Cc3c(ccc4c3OC[C@H]3CN(C(=O)C5CCN(c6ccc([C@@H]7c8ccc(O)cc8CC[C@@H]7c7ccccc7)cc6)CC5)CCN43)C2=O)C(=O)N1 (stereo partly drawn) [Compound B295, 3-((R)-7-(1-(4-((1R,2S)-6-hydroxy-2-phenyl-1,2,3,4-tetrahydronaphthalen-1-yl)phenyl)piperidine-4-carbonyl)-1-oxo-1,3,5,5a,6,7,8,9-octahydro-2H-pyrazino[1′,2′:4,5][1,4]oxazino[2,3-e]isoindol-2-yl)piperidine-2,6-dione]
